Series [1] in a line: Inhibition of MEK-mediated phosphorylation of myelin basic protein by kinase cascade assay.
Series [2] can be described thus: Inhibition of MEK-mediated ERK phosphorylation in PDGF-stimulated mouse K-Balb cells treated as single oral dose preincubated for 24 hrs before PDGF challenge by whole cell assay.
A short description of series [3]: Inhibition of MEK-mediated ERK phosphorylation in PDGF-stimulated mouse K-Balb cells treated as single oral dose preincubated for 1 hr before PDGF challenge by whole cell assay.
Series [4] in a line: Aqueous solubility in phosphate buffer at pH 6.5. The series is classed as physicochemical.
The nature of series [5]: Inhibition of MEK-stimulated ERK phosphorylation in PDGF-stimulated mouse C26 cells treated as single oral dose before PDGF challenge by whole cell assay. The series is classed as cell-based.
The nature of series [6]: Antitumor activity in mouse C26 cells xenografted mouse assessed as tumor growth delay at 300 mg/kg/treatment, po dosed thrice a day after 14 days relative to control. The class given is functional.
Series [7] is described as follows: Antitumor activity in mouse C26 cells xenografted mouse assessed as tumor growth delay at 75 mg/kg/treatment, po dosed thrice a day after 14 days relative to control. The class given is functional.
Series [8] deals with Mus musculus. Nature of the series: Inhibition of MEK-mediated ERK phosphorylation in mouse C26 cells xenografted mouse at 100 mg/kg, po after 1 day. The note with it: C26, 24 h. The series is classed as functional.
Series [9] can be described thus: Antitumor activity in mouse C26 cells xenografted mouse assessed as 100% reduction in tumor mass at 75 mg/kg/treatment, po dosed thrice a day after 14 days. Details: scale not given: the % may be the effect or the level left. The class given is functional.
Series [10] is described as follows: Metabolic stability in human hepatocytes. The class given is ADME, cell-based, Liver, Hepatocyte.
Series [11] is described as follows: Antitumor activity in mouse C26 cells xenografted mouse assessed as 50% reduction in tumor mass at 300 mg/kg/treatment, po dosed thrice a day after 14 days. The class given is functional. Details: scale not given: the % may be the effect or the level left.
The nature of series [12]: Antitumor activity in mouse C26 cells xenografted mouse assessed as 100% reduction in tumor mass at 300 mg/kg/treatment, po dosed thrice a day after 14 days. The series is classed as functional. More on the design: scale not given: the % may be the effect or the level left.
Series [13] can be described thus: Metabolic stability in human liver microsomes. The series is classed as ADME, Microsome.
The nature of series [14]: Distribution coefficient, log D of the compound. The note with it: octanol/water. The class given is physicochemical.
Series [15] is described as follows: Permeability across human Caco-2 cells. The class given is ADME, cell-based. The note with it: read-out: permeability.
Series [16] in a line: Antitumor activity in mouse C26 cells xenografted mouse assessed as 50% reduction in tumor mass at 75 mg/kg/treatment, po dosed thrice a day after 14 days. The class given is functional. More on the design: scale not given: the % may be the effect or the level left.
The nature of series [17]: Antitumor activity in mouse C26 cells xenografted mouse assessed as 50% reduction in tumor mass at 25 mg/kg/treatment, po qd after 14 days. The class given is functional. Details: scale not given: the % may be the effect or the level left.
Series [18] in a line: Antitumor activity in mouse C26 cells xenografted mouse assessed as 50% reduction in tumor mass at 1.6 mg/kg/treatment, po qd after 14 days. The class given is functional. More on the design: scale not given: the % may be the effect or the level left.
Series [19] is described as follows: Toxicity in mouse assessed as maximum tolerated dose. The series is classed as organism-based. The settings on record: in vivo.
A short description of series [20]: Antitumor activity in mouse C26 cells xenografted mouse assessed as minimal effective dose. The settings on record: read-out: MED. The series is classed as functional.
Series [21] can be described thus: Antitumor activity in mouse C26 cells xenografted mouse assessed as 100% reduction in tumor mass at 25 mg/kg/treatment, po qd after 14 days. The class given is functional. More on the design: scale not given: the % may be the effect or the level left.
Series [22] is described as follows: Antitumor activity in mouse C26 cells xenografted mouse assessed as tumor growth delay at 1.6 mg/kg/treatment, po qd after 14 days relative to control. The class given is functional.
Series [23] can be described thus: Antitumor activity in mouse C26 cells xenografted mouse assessed as tumor growth delay at 25 mg/kg/treatment, po qd after 14 days relative to control. The class given is functional.
The test system of series [24] is Mus musculus. In words: Inhibition of MEK-mediated ERK phosphorylation in mouse C26 cells xenografted mouse at 12.5 mg/kg, po after 1 day. The class given is functional. The note with it: C26, 24 h.
A short description of series [25]: Antitumor activity in mouse C26 cells xenografted mouse assessed as 100% reduction in tumor mass at 1.6 mg/kg/treatment, po qd after 14 days. More on the design: scale not given: the % may be the effect or the level left. The series is classed as functional.
In series [26] the test system is Mus musculus. Nature of the series: Inhibition of MEK-mediated ERK phosphorylation in mouse C26 cells xenografted mouse at 50 mg/kg, po after 1 day. The settings on record: C26, 24 h. The series is classed as functional.

Values after ≈ are worked out from the molar mass of the structure shown.

Consider `O=C(O)c1ccccc1Nc1cccc(I)c1`, for which the IC50 in series [1] was more than 10000 nM.

Turning to `CCONC(=O)c1ccc(F)c(F)c1Nc1ccc(I)cc1C`, the half-inhibitory concentration (IC50) in series [2] stood at 47 nM; in [3] it was 4.18 nM; in series [1], 20 nM.

`Cc1cc(I)ccc1Nc1cc(F)ccc1C(=O)O` had an IC50 in [1] of 15 nM.

As to `CONC(=O)c1ccc(F)cc1Nc1ccc(I)cc1C`, the IC50 in series [2] was found to be 50 nM; in series [3] it was 11.8 nM; in [1] it was 26 nM.

For the compound `O=C(NOCCO)c1ccc(F)c(F)c1Nc1ccc(I)cc1Cl`, the solubility in [4] is less than 1 µg/mL. Moreover, it took 3.5 nM to reach half-maximal inhibition in [5] (IC50).

In the case of `Cc1cc(I)ccc1Nc1c(C(=O)NOCC2CC2)ccc(F)c1F`, the values for the IC50 in series [2], in series [3] and in series [1] were 172 nM, 6.48 nM and 7 nM, respectively.

On to `Cc1cc(I)ccc1Nc1c(C(=O)NOCC2CC2)cc(Br)c(F)c1F`, for which the IC50 was found to be 113 nM in series [2], 26.4 nM in series [3] and 7.8 nM in [1].

For `Cc1cc(I)ccc1Nc1c(C(=O)NOCC2CCCC2)cc(Br)c(F)c1F`, the IC50 in series [2] was 661 nM; in series [3], 119 nM; in series [1], 23 nM.

On to `Cc1cc(I)ccc1Nc1c(C(=O)NOCC2CCCCC2)cc(Br)c(F)c1F`, for which the results for the half-maximal inhibitory concentration (IC50) in series [2], in series [3] and in series [1] were 1780 nM, 1140 nM and 48 nM, respectively.

With `CCCONC(=O)c1ccc(F)c(F)c1Nc1ccc(I)cc1C`, the figures for the IC50 in series [2], in series [3] and in series [1] were 136 nM, 4.42 nM and 18 nM, respectively.

For the compound `Cc1cc(I)ccc1Nc1c(C(=O)NOC(C)C)ccc(F)c1F`, the values for the IC50 in series [2], in series [3] and in [1] were 232 nM, 8.18 nM and 35 nM, respectively.

As for `Cc1cc(I)ccc1Nc1cc(F)ccc1C(=O)NOCC1CC1`, the IC50 is 257 nM in [2], 23.5 nM in series [3] and 27 nM in series [1].

Regarding `O=C(NOCC1CC1)c1ccc(F)cc1Nc1ccc(I)cc1Cl`, the half-inhibitory concentration (IC50) in series [2] came out at 84.6 nM; in series [3] it was 54.9 nM; in series [1] it was 13 nM.

`Cc1cc(I)ccc1Nc1c(C(=O)O)ccc(F)c1F` registered an IC50 in series [1] of 5.8 nM.

In the case of `Cc1cc(I)ccc1Nc1ccc(F)cc1C(=O)O`, in [1], the IC50 was 166 nM.

Compound `Cc1cc(I)ccc1Nc1cc(Cl)ccc1C(=O)O` returned a half-inhibitory concentration (IC50) in series [1] of 554 nM.

`Cc1cc(I)ccc1Nc1ccccc1C(=O)O` came in with an IC50 in series [1] of 390 nM.

Turning to `O=C(O)c1ccccc1Nc1ccccc1I`, the half-maximal inhibitory concentration (IC50) in [1] is more than 10000 nM.

Regarding `O=C(O)c1ccccc1Nc1ccc(I)cc1`, the IC50 in series [1] amounted to 3050 nM.

Regarding `O=C(NOC[C@@H](O)CO)c1ccc(F)c(F)c1Nc1ccc(I)cc1F`, in series [4], the concentration in solution (solubility) was 255 µg/mL (≈ 529 µM).

As for `O=C(NOCC1CC1)c1ccc(F)c(F)c1Nc1ccc(I)cc1F`, the solubility in series [4] was less than 1 µg/mL. This compound also came in with an IC50 in series [5] of 1 nM.

On to `O=C(NO)c1ccc(F)cc1Nc1ccc(I)cc1Cl`, for which the concentration for half-maximal inhibition (IC50) turned out to be 645 nM in series [2], 1.59 nM in [3] and 2.8 nM in series [1].

Turning to `Cc1cc(I)ccc1Nc1c(C(=O)NOCC2CCC2)cc(Br)c(F)c1F`, the IC50 was 326 nM in series [2], 75.8 nM in series [3] and 10 nM in series [1].

As for `Cc1cc(I)ccc1Nc1cc(F)ccc1C(=O)NO`, the figures for the IC50 in series [2], in series [3] and in [1] were 624 nM, 3.55 nM and 7.96 nM, respectively.

Take `Cc1cc(I)ccc1Nc1c(C(=O)O)cc(F)c(F)c1F`: the IC50 in series [1] worked out at 6.8 nM.

As for `Cc1cc(I)ccc1Nc1cccc(F)c1C(=O)O`, in [1], the midpoint of inhibition, the IC50, lay at 518 nM.

For `O=C(NOCC(O)CO)c1ccc(F)c(F)c1Nc1ccc(I)cc1Cl` (racemic), half-maximal inhibition in series [5] (IC50) was put at 19 nM.

Take `O=C(NOCC(O)CO)c1ccc(F)c(F)c1Nc1ccc(I)cc1F` (racemic): in series [4], the concentration in solution (solubility) was 147 µg/mL (≈ 305 µM).

In the case of `O=C(NOCC1CC1)c1ccc(F)c(F)c1Nc1ccc(I)cc1Cl` [CI-1040], the Activity was 12.7 days in [6]; 10.8 days in series [7]; 10% in series [9]; 30% in [11]; 70% in [12]; 20% in series [16]. Moreover, the half-maximal inhibitory concentration (IC50) in series [5] was 35 nM; in [2], 35.4 nM; in [3], 2.45 nM; in series [1], 2.3 nM. The compound also gave an inhibition in vivo at 100 mg/kg with Mus musculus [8] of 14%. Moreover, the half-life was 1.67 h in series [10] and 0.192 h in series [13]. Moreover, the log distribution coefficient (logD) in series [14] is more than 5. For the same compound, the Papp in series [15] was found to be 16.2 ×10⁻⁶ cm/s.

For the compound `O=C(NOC[C@H](O)CO)c1ccc(F)c(F)c1Nc1ccc(I)cc1F` [MIRDAMETINIB], the Activity in [17] is 30%; in series [18], 0%; in series [21], 70%; in series [22], 7.7 days; in [23] it was 15.4 days; in series [25], 20%. In series [4], this compound showed a solubility of 190 µg/mL (≈ 394 µM). Besides, the MTD in [19] was found to be 25 mg/kg. Besides, the minimal effective dose in series [20] is 1.6 mg/kg. For the same compound, the half-life in series [10] is 6.17 h; in series [13], more than 1.67 h. The same compound yielded an inhibition in vivo at 12.5 mg/kg in the series on Mus musculus [24] of 59%. This compound also returned a pH-dependent lipophilicity (logD) in series [14] of 4.6. For the same compound, the Papp in series [15] turned out to be 72.7 ×10⁻⁶ cm/s. In addition, at 50 mg/kg the inhibition in vivo in the series with Mus musculus [26] was 84%.

Values taken from ChEMBL document CHEMBL1152168 (Bioorg Med Chem Lett, 2008).
